Source: patent US4089862A, “Pyridyl substituted ergoline derivatives” (Societa' Farmaceutici Italia S.p.A., priority 1976, dated 1978)

Tested on: rabbit platelets
Assay: ADP induced platelet aggregation in vitro, turbidimetric method (Born and Cross, modified)
Format: cell-based
Settings: percent of ADP controls, rabbit PRP
Text: For the relevant study on the platelet aggregation "in vitro" herein, the turbidimetric method initially described by Born and Cross (J. Physiol. 168, 178, 1963) has been followed with some changes, principally due to the use of rabbit platelets, rather than human or pig platelets, as reported in their original work: (1) Preparation of platelet-rich plasma (PRP) and platelet-poor plasma (PPP) Male rabbits weighing 2.5-3.5 kg were used. Fifty four ml of blood were withdrawn from the carotid artery of rabbits anaesthetized with ether. The blood was gently mixed with six ml of 3.8% trisodium citrate as anticoagulant. The PRP was obtained by centrifugation at 400 g for 10 minutes. The concentration of the platelets was adjusted to 250,000/mm^3 by diluting the PRP with PPP prepared by a second centrifugation of the blood samples for about 10 minutes at 2000 g. The aggregation experiments were in general performed within 1-2 hr. from the time of blood collection. (2) ADP induced platelet aggregation In the cuvette of the aggregometer, reagents were added as follows: 0.8 ml PRP, 0.2 ml drug solution or saline, and 0.2 ml ADP (adenosine diphosphate) at the molar concentration of 2.2 × 10^-4. The turbidimetry was checked after 11/2, 3 and 6 minutes. The inhibition of the aggregation is given in the table as percent of ADP controls at these three times.

[1] = 1 minute and 30 seconds after ADP, 50 γ
[2] = 1 minute and 30 seconds after ADP, 100 γ
[3] = 1 minute and 30 seconds after ADP, 200 γ

Row | SMILES | percent inhibition of platelet aggregation [1] | percent inhibition of platelet aggregation [2] | percent inhibition of platelet aggregation [3] | percent inhibition of platelet aggregation (3 minutes after ADP, 50 γ) | percent inhibition of platelet aggregation (3 minutes after ADP, 100 γ) | percent inhibition of platelet aggregation (3 minutes after ADP, 200 γ) | percent inhibition of platelet aggregation (6 minutes after ADP, 50 γ) | percent inhibition of platelet aggregation (6 minutes after ADP, 100 γ) | percent inhibition of platelet aggregation (6 minutes after ADP, 200 γ)
1 | CO[C@]12C[C@@H](COC(=O)c3cncc(Br)c3)CN(C)[C@@H]1Cc1cn(C)c3cccc2c13 [355/347, 10-methoxy-1,6-dimethyl-8β-methanol-5-bromonicotinate, reference compound] | 11% | 24% | 40% | 12% | 21% | 50% | 22% | 33% | 60%
2 | CO[C@]12C[C@@H](CNc3ccc(Br)cn3)CN(C)[C@@H]1Cc1cn(C)c3cccc2c13 [compound 893, N-(5'-bromo-2'-pyridyl)-10α-methoxy-1,6-dimethylergoline-8β-methanamine] | 31% | 58% | 63% | 14% | 46% | 69% | 7% | 52% | 71%
3 | CO[C@]12C[C@@H](CNc3cc(C)ccn3)CN(C)[C@@H]1Cc1cn(C)c3cccc2c13 [compound 894, N-(4'-methyl-2'-pyridyl)-10α-methoxy-1,6-dimethylergoline-8β-methanamine] | 22% | 61% | 100% | 22% | 61% | 100% | 29% | 71% | 100%
4 | CO[C@]12C[C@@H](CNc3cc(C)cc(C)n3)CN(C)[C@@H]1Cc1cn(C)c3cccc2c13 [compound 897, N-(4',6'-dimethyl-2'-pyridyl)-10α-methoxy-1,6-dimethylergoline-8β-methanamine] | 31% | 62% | 89% | 22% | 51% | 91% | 25% | 56% | 92%
5 | CO[C@]12C[C@@H](CNc3ccccn3)CN(C)[C@@H]1Cc1cn(C)c3cccc2c13 [compound 925, N-(2'-pyridyl)-10α-methoxy-1,6-dimethylergoline-8β-methanamine] | 16% | 50% | 100% | 21% | 56% | 100% | 30% | 65% | 100%
6 | CO[C@]12C[C@@H](CSc3ccc([N+](=O)[O-])cn3)CN(C)[C@@H]1Cc1cn(C)c3cccc2c13 [compound 926, 5'-Nitro-2'-pyridyl-10α-methoxy-1,6-dimethylergoline-8β-methyl sulphide] | 25% | 61% | 100% | 13% | 55% | 100% | 17% | 65% | 100%
